Results published in PubChem BioAssay (NCI).
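Cultured in 96-well plates, cells were exposed to test compound for 48 hours across five concentrations. Abbreviation: GI50, concentration required for 50% inhibition of growth. TGI: concentration producing complete growth inhibition.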

Assays:
Assay in all cases: NCI-60 cell line screen, 48 h
[1] = system: HCT-15 colon
[2] = system: HS 578T breast
[3] = system: HL-60(TB) leukemia
[4] = system: BT-549 breast
[5] = system: CAKI-1 renal
[6] = system: SNB-19 CNS
[7] = system: MDA-MB-231 breast
[8] = system: U251 CNS
[9] = system: MDA-MB-435
[10] = system: DU-145 prostate
[11] = system: KM12 colon
[12] = system: RPMI-8226 leukemia
[13] = system: MCF7 breast
[14] = system: SN12C renal
[15] = system: OVCAR-4 ovarian
[16] = system: EKVX NSCLC
[17] = system: SF-295 CNS
[18] = system: 786-0 renal
[19] = system: HOP-92 NSCLC
[20] = system: ACHN renal
[21] = system: M14 melanoma
[22] = system: TK-10 renal
[23] = system: COLO 205 colon
[24] = system: RXF 393 renal
[25] = system: PC-3 prostate
[26] = system: NCI-H23 lung
[27] = system: NCI-H522 lung
[28] = system: SR leukemia
[29] = system: HOP-62 NSCLC
[30] = system: HCC-2998 colon
[31] = system: SK-MEL-5 melanoma
[32] = system: NCI-H226 lung
[33] = system: SK-OV-3 ovarian
[34] = system: HCT-116 colon
[35] = system: CCRF-CEM leukemia
[36] = system: SW-620 colon
[37] = system: OVCAR-8 ovarian
[38] = system: UACC-257 melanoma
[39] = system: SK-MEL-28 melanoma
[40] = system: A549 NSCLC
[41] = system: MALME-3M melanoma
[42] = system: MDA-MB-468 breast
[43] = system: SF-268 CNS
[44] = system: SF-539 CNS
[45] = system: LOX IMVI melanoma
[46] = system: NCI-H460 lung
[47] = system: A498 renal
[48] = system: OVCAR-5 ovarian
[49] = system: T-47D breast
[50] = system: IGROV1 ovarian
[51] = system: OVCAR-3 ovarian
[52] = system: UO-31 renal
[53] = system: K-562 leukemia
[54] = system: HT29 colon
[55] = system: UACC-62 melanoma
[56] = system: MOLT-4 leukemia
[57] = system: SNB-75 CNS

`CC1(C)CC[C@]2(C(=O)Nc3ccc(F)cc3)CC[C@]3(C)C(=CCC4[C@@]5(C)C[C@@H](O)[C@H](O)[C@@](C)(CO)C5CC[C@]43C)C2C1` (some centres undefined) gave a GI50 [1] of 13.2 µM, a TGI [1] of 27.4 µM and a GI50 [2] of 20.5 µM. For the same molecule, the TGI [2] was 76.9 µM, the GI50 [3] was 14.2 µM and the TGI [3] was 38.8 µM. It also gave a GI50 [4] of 13.1 µM, a TGI [4] of 26.8 µM and a GI50 [5] of 11.1 µM. The TGI [5] was 39.6 µM, the GI50 [6] was 23.8 µM and the TGI [6] was > 100 µM. It also gave a GI50 [7] of 14.2 µM, a TGI [7] of 28.7 µM and a GI50 [8] of 14.9 µM. The TGI [8] was 30 µM, the GI50 [9] was 14.4 µM and the TGI [9] was 28.8 µM. For the same molecule, the GI50 [10] was 20.1 µM, the TGI [10] was 45.6 µM and the GI50 [11] was 17.5 µM. For the same molecule, the TGI [11] was 35.7 µM, the GI50 [12] was 14.9 µM and the TGI [12] was 64.6 µM. The GI50 [13] was 13 µM, the TGI [13] was 29.5 µM and the GI50 [14] was 14.8 µM. For the same molecule, the TGI [14] was 29.6 µM, the GI50 [15] was 16.8 µM and the TGI [15] was 46.5 µM. The GI50 [16] was 17.2 µM, the TGI [16] was 47.2 µM and the GI50 [17] was 13.9 µM. The TGI [17] was 28.6 µM, the GI50 [18] was 15.5 µM and the TGI [18] was 30.4 µM. It also gave a GI50 [19] of 13.2 µM, a TGI [19] of 29 µM and a GI50 [20] of 14.8 µM. For the same molecule, the TGI [20] was 28.1 µM, the GI50 [21] was 15.7 µM and the TGI [21] was 31.5 µM. It also gave a GI50 [22] of 22.8 µM, a TGI [22] of 54.1 µM and a GI50 [23] of 16.7 µM. The TGI [23] was 33.6 µM, the GI50 [24] was 10.9 µM and the TGI [24] was 23.3 µM. It also gave a GI50 [25] of 12.8 µM, a TGI [25] of 38.5 µM and a GI50 [26] of 17.9 µM. For the same molecule, the TGI [26] was 39.3 µM, the GI50 [27] was 17.6 µM and the TGI [27] was 40.1 µM. For the same molecule, the GI50 [28] was 10.3 µM, the TGI [28] was 37.3 µM and the GI50 [29] was 18.8 µM. For the same molecule, the TGI [29] was 43.5 µM, the GI50 [30] was 16.7 µM and the TGI [30] was 31.1 µM. It also gave a GI50 [31] of 14.7 µM, a TGI [31] of 27.8 µM and a GI50 [32] of 13.5 µM. It also gave a TGI [32] of 34.3 µM, a GI50 [33] of 20.3 µM and a TGI [33] of 51 µM. For the same molecule, the GI50 [34] was 13.1 µM, the TGI [34] was 26 µM and the GI50 [35] was 20 µM. The TGI [35] was 90.6 µM, the GI50 [36] was 25.8 µM and the TGI [36] was > 100 µM. For the same molecule, the GI50 [37] was 29 µM, the TGI [37] was > 100 µM and the GI50 [38] was 18.4 µM. It also gave a TGI [38] of 47.9 µM, a GI50 [39] of 15.6 µM and a TGI [39] of 31.6 µM. The GI50 [40] was 29.5 µM, the TGI [40] was > 100 µM and the GI50 [41] was 16 µM. It also gave a TGI [41] of 29.9 µM, a GI50 [42] of 13.5 µM and a TGI [42] of 31.3 µM. It also gave a GI50 [43] of 22.6 µM, a TGI [43] of 89 µM and a GI50 [44] of 14.8 µM. It also gave a TGI [44] of 28.3 µM, a GI50 [45] of 15.6 µM and a TGI [45] of 30.7 µM. For the same molecule, the GI50 [46] was 15.4 µM, the TGI [46] was 33.8 µM and the GI50 [47] was 20.8 µM. It also gave a TGI [47] of 45.6 µM, a GI50 [48] of 14.6 µM and a TGI [48] of 28.4 µM. For the same molecule, the GI50 [49] was 12.9 µM, the TGI [49] was 32.1 µM and the GI50 [50] was 15.8 µM. The TGI [50] was 34.1 µM, the GI50 [51] was 16.3 µM and the TGI [51] was 31.2 µM. It also gave a GI50 [52] of 12.8 µM, a TGI [52] of 29.2 µM and a GI50 [53] of 17.8 µM. The TGI [53] was 62.8 µM, the GI50 [54] was 15.6 µM and the TGI [54] was 30.5 µM. The GI50 [55] was 9.17 µM, the TGI [55] was 21.9 µM and the GI50 [56] was 7.51 µM. It also gave a TGI [56] of 30.6 µM, a GI50 [57] of 13.5 µM and a TGI [57] of 61 µM.
